Assay results as given in ChEMBL document CHEMBL1201862, “PubChem BioAssay data set” (2004).
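The compound was tested at five concentrations on cells cultured in 96-well plates, with a 48-hour exposure period. Abbreviation: GI50, concentration required for 50% inhibition of growth.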 The source made the active and inactive calls. Cut-off read from the data, not from the text of the source: active = GI50 up to about 1.1 µM and inactive = higher.

Key:
Assay in all cases: growth of human tumour cells (NCI), 48 h
786-0 = system: 786-0
A549 = system: A549
ACHN = system: ACHN
BT-549 = system: BT-549
CAKI-1 = system: CAKI-1
COLO 205 = system: COLO 205
DU-145 = system: DU-145
EKVX = system: EKVX
HCC 2998 = system: HCC 2998
HCT-116 = system: HCT-116
HCT-15 = system: HCT-15
HOP-62 = system: HOP-62
HOP-92 = system: HOP-92
HT-29 = system: HT-29
IGROV-1 = system: IGROV-1
KM12 = system: KM12
LOX IMVI = system: LOX IMVI
M14 = system: M14
MCF7 = system: MCF7
MDA-MB-435 = system: MDA-MB-435
MDA-N = system: MDA-N
MOLT-4 = system: MOLT-4
Malme-3M = system: Malme-3M
NCI-H226 = system: NCI-H226
NCI-H23 = system: NCI-H23
NCI-H460 = system: NCI-H460
NCI-H522 = system: NCI-H522
NCI/ADR-RES = system: NCI/ADR-RES
OVCAR-3 = system: OVCAR-3
OVCAR-4 = system: OVCAR-4
OVCAR-5 = system: OVCAR-5
OVCAR-8 = system: OVCAR-8
PC-3 = system: PC-3
RPMI-8226 = system: RPMI-8226
RXF 393 = system: RXF 393
SF-268 = system: SF-268
SF-295 = system: SF-295
SF-539 = system: SF-539
SK-MEL-28 = system: SK-MEL-28
SK-MEL-5 = system: SK-MEL-5
SK-OV-3 = system: SK-OV-3
SN12C = system: SN12C
SNB-19 = system: SNB-19
SNB-75 = system: SNB-75
SR = system: SR
SW-620 = system: SW-620
T47D = system: T47D
TK-10 = system: TK-10
U-251 = system: U-251
UACC-62 = system: UACC-62
UO-31 = system: UO-31
A498 = system: A498
CCRF-CEM = system: CCRF-CEM
HL-60 = system: HL-60
Hs-578T = system: Hs-578T
K562 = system: K562
MDA-MB-231 = system: MDA-MB-231
SK-MEL-2 = system: SK-MEL-2
UACC-257 = system: UACC-257

NS(=O)(=O)c1ccc(CNc2nc(-c3cccs3)nc3ccc(I)cc23)cc1
GI50 (786-0): 17.5 µM (inactive) | GI50 (A549): 12.5 µM (inactive) | GI50 (ACHN): 18.4 µM (inactive) | GI50 (BT-549): 12.7 µM (inactive) | GI50 (CAKI-1): 6.15 µM (inactive) | GI50 (COLO 205): 16.1 µM (inactive) | GI50 (DU-145): 14.9 µM (inactive) | GI50 (EKVX): 3.85 µM (inactive) | GI50 (HCC 2998): 13.8 µM (inactive) | GI50 (HCT-116): 14.9 µM (inactive) | GI50 (HCT-15): 13.1 µM | GI50 (HOP-62): 21.4 µM (inactive) | GI50 (HOP-92): 16 µM (inactive) | GI50 (HT-29): 19.4 µM (inactive) | GI50 (IGROV-1): 12.2 µM (inactive) | GI50 (KM12): 8.57 µM (inactive) | GI50 (LOX IMVI): 14.8 µM (inactive) | GI50 (M14): 15.1 µM (inactive) | GI50 (MCF7): 573 nM (active) | GI50 (MDA-MB-435): 14.6 µM (inactive) | GI50 (MDA-N): 19.5 µM (inactive) | GI50 (MOLT-4): 21.9 µM (inactive) | GI50 (Malme-3M): 14.7 µM (inactive) | GI50 (NCI-H226): 17.9 µM (inactive) | GI50 (NCI-H23): 17.9 µM (inactive) | GI50 (NCI-H460): 15 µM (inactive) | GI50 (NCI-H522): 14.7 µM (inactive) | GI50 (NCI/ADR-RES): 26.2 µM (inactive) | GI50 (OVCAR-3): 11.2 µM (inactive) | GI50 (OVCAR-4): 10.7 µM (inactive) | GI50 (OVCAR-5): 19.2 µM (inactive) | GI50 (OVCAR-8): 18.4 µM (inactive) | GI50 (PC-3): 19.4 µM (inactive) | GI50 (RPMI-8226): 18.6 µM (inactive) | GI50 (RXF 393): 19.6 µM (inactive) | GI50 (SF-268): 23.1 µM (inactive) | GI50 (SF-295): 17.9 µM (inactive) | GI50 (SF-539): 11.2 µM (inactive) | GI50 (SK-MEL-28): 21.3 µM (inactive) | GI50 (SK-MEL-5): 14.1 µM (inactive) | GI50 (SK-OV-3): 22.6 µM (inactive) | GI50 (SN12C): 22.9 µM (inactive) | GI50 (SNB-19): 17.4 µM (inactive) | GI50 (SNB-75): 21.6 µM (inactive) | GI50 (SR): 15 µM (inactive) | GI50 (SW-620): 31.5 µM (inactive) | GI50 (T47D): 222 nM (active) | GI50 (TK-10): 9.16 µM (inactive) | GI50 (U-251): 18.1 µM (inactive) | GI50 (UACC-62): 16.5 µM (inactive) | GI50 (UO-31): 2.11 µM (inactive)

O=c1[nH]/c(=C/c2cccs2)c(=O)[nH]/c1=C/c1ccc(OCc2ccccc2)cn1
GI50 (786-0): 0.061 µM (active) | GI50 (A498): 37.4 nM (active) | GI50 (A549): 0.144 µM (active) | GI50 (ACHN): 3.24 µM (inactive) | GI50 (BT-549): 0.0239 µM (active) | GI50 (CAKI-1): 0.0312 µM (active) | GI50 (CCRF-CEM): 32.7 nM (active) | GI50 (COLO 205): 0.323 µM (active) | GI50 (DU-145): 0.0716 µM (active) | GI50 (EKVX): 1 µM (active) | GI50 (HCC 2998): 0.0562 µM (active) | GI50 (HCT-116): 0.0494 µM (active) | GI50 (HCT-15): < 0.015 µM | GI50 (HL-60): < 18.2 nM (active) | GI50 (HOP-62): 0.033 µM (active) | GI50 (HT-29): 0.124 µM (active) | GI50 (Hs-578T): 27.6 nM (active) | GI50 (IGROV-1): 0.219 µM (active) | GI50 (K562): < 15.6 nM (active) | GI50 (KM12): 0.59 µM (active) | GI50 (LOX IMVI): 57.1 µM (inactive) | GI50 (M14): 0.0309 µM (active) | GI50 (MCF7): 42.2 nM (active) | GI50 (MDA-MB-231): 219 nM (active) | GI50 (MDA-MB-435): < 0.01 µM (active) | GI50 (MDA-N): 0.0164 µM (active) | GI50 (MOLT-4): 0.033 µM (active) | GI50 (Malme-3M): 0.0197 µM (active) | GI50 (NCI-H226): 0.312 µM (active) | GI50 (NCI-H23): 0.0398 µM (active) | GI50 (NCI-H460): 0.0351 µM (active) | GI50 (NCI-H522): 0.0171 µM (active) | GI50 (NCI/ADR-RES): 0.0266 µM (active) | GI50 (OVCAR-3): < 0.0146 µM (active) | GI50 (OVCAR-4): 0.0836 µM (active) | GI50 (OVCAR-5): 3.87 µM (inactive) | GI50 (OVCAR-8): 0.197 µM (active) | GI50 (PC-3): 0.0431 µM (active) | GI50 (RPMI-8226): 0.0618 µM (active) | GI50 (RXF 393): 0.0506 µM (active) | GI50 (SF-268): 0.0521 µM (active) | GI50 (SF-295): 0.0206 µM (active) | GI50 (SF-539): 0.123 µM (active) | GI50 (SK-MEL-28): 3.3 µM (inactive) | GI50 (SK-MEL-2): 56.1 nM (active) | GI50 (SK-MEL-5): 0.0515 µM (active) | GI50 (SK-OV-3): 0.0426 µM (active) | GI50 (SN12C): 0.064 µM (active) | GI50 (SNB-19): 0.0661 µM (active) | GI50 (SNB-75): 0.027 µM (active) | GI50 (SR): < 0.0142 µM (active) | GI50 (SW-620): 0.0361 µM (active) | GI50 (TK-10): 1.74 µM (inactive) | GI50 (U-251): 0.0631 µM (active) | GI50 (UACC-257): 116 nM (active) | GI50 (UACC-62): 0.0638 µM (active) | GI50 (UO-31): 0.0207 µM (active)
